Tests used:
Assay type in all cases: biochemical
human thrombin = biological target: T1, human thrombin (Homo sapiens, UniProt P00734); assay: Inhibition of amidase activity of thrombin (chromogenic substrate), Kass; conditions: substrate N-benzoyl-Phe-Val-Arg-p-nitroanilide, pH 7.4
T1 construct: purified human thrombin Enzyme Research Laboratories, South Bend, Ind; purchased Enzyme Research Laboratories, South Bend, Ind
Protocol: (§1) The assay is carried out by mixing 50 μl buffer (0.03M Tris, 0.15M NaCl, pH 7.4), 25 μl of human thrombin solution (purified human thrombin Enzyme Research Laboratories, South Bend, Ind.) at 8 NIH units/ml and 25 μl of test compound in a solvent (50% aqueous methanol (v:v)). Then 150 μl of an aqueous solution of the chromogenic substrate (at 0.25 mg/ml) are added and the rates of hydrolysis of the substrate are measured by monitoring the reactions at 405 nm for the release of p-nitroaniline. Standard curves are constructed by plotting free thrombin concentration against hydrolysis rate. The hydrolysis rates observed with test compounds are then converted to "free thrombin" values in the respective assays by use of the standard curves. The bound thrombin (bound to test compound) is calculated by subtracting the amount of free thrombin observed in each assay from the known initial amount of thrombin used in the assay. The amount of free inhibitor in each assay is calculated by subtracting the number of moles of bound thrombin from the number of moles of added inhibitor (test compound).
The Kass value is the hypothetical equilibrium constant for the reaction between thrombin and the test compound (I). [drawing 53]
(§2) Kass is calculated for a range of concentrations of test compounds and the mean value is reported in units of liter per mole.

factor Xa = biological target: T2, factor Xa (Homo sapiens, UniProt P00742); assay: Serine protease inhibition, factor Xa (chromogenic substrate), Kass; conditions: substrate N-Benzoyl-Ile-Glu-Gly-Arg-p-nitroanilide
T2 construct: Human factors X, Xa, IXa, XIa, and xIIa are purchased from Enzyme Research Laboratories; purchased Enzyme Research Laboratories, South Bend, Ind
T2 sequence (P00742 235-488 limits assumed): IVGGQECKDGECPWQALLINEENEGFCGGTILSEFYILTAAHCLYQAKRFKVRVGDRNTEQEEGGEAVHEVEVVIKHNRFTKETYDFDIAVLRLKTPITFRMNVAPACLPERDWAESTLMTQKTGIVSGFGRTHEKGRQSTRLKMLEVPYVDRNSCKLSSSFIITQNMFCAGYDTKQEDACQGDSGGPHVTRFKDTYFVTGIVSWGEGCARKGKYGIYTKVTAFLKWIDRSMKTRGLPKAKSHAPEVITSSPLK
T2 sequence (P00742 41-179 partner limits assumed): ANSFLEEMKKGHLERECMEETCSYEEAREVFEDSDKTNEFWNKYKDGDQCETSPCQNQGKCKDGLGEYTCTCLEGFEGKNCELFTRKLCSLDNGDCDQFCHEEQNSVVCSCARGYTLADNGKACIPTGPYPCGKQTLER
Protocol: as §1, §2
(§3) By substantially following the procedures described above for human thrombin, and using other human blood coagulation system serine proteases, and using fibrinolytic system serine proteases, with the appropriate chromogenic substrate, identified below, selectivity of the compounds of the present invention with respect to the coagulation factor serine proteases and to the fibrinolytic serine proteases are evaluated as well as their substantial lack of interference with human plasma clot fibrinolysis.
(§4) Human factors X, Xa, IXa, XIa, and xIIa are purchased from Enzyme Research Laboratories, South Bend, Ind.; human urokinase from Leo Pharmaceuticals, Denmark; and recombinant activated Protein C (aPC) is prepared at Eli Lilly and Co. substantially according to U.S. Pat. No. 4,981,952 incorporated by reference herein in its entirety. Chromogenic substrates: N-Benzoyl-Ile-Glu-Gly-Arg-p-nitroanilide (for factor Xa); N-Cbz-D-Arg-Gly-Arg-p-nitroanilide (for factor IXa assay as the factor Xa substrate) pyroglutamyl-Pro-Arg-p-nitroanilide (for factor XIa and for aPC); H-D-Pro-Phe-Arg-p-nitroanilide (for factor XIIa); and pyroglutamyl-Gly-Arg-p-nitroanilide (for urokinase); are purchased from KabiVitrum, Stockholm, Sweden, or from Midwest Biotech, Fishers, Indiana. Bovine trypsin is purchased from Worthington Biochemicals, Freehold, N.J., and human plasma kallikrein from Kabi Vitrum, Stockholm, Sweden. N-Benzoyl-Phe-Val-Arg-p-nitroanilide, the substrate for human thrombin and for trypsin, is synthesized according to procedures described above for the compounds of the present invention, known methods of peptide coupling from commercially available reactants, or was purchased from Midwest Biotech, Fishers, Ind. Human plasmin is purchased from Boehringer Mannheim, Indianapolis, Ind.; nt-PA is purchased as single chain activity reference from American Diagnostics, Greenwich, Conn.; modified-t-PA6 (mt-PA6) is prepared at Eli Lilly and Company by procedure known in the art (See, Burck, et al., J. Biol. Chem., 265, […] (1990). Plasmin chromogenic substrate H-D-Val-Leu-Lys-p-nitroanilide and tissue plasminegen activator (t-PA) substrate H-D-Ile-Pro-Arg-p-nitroanilide are purchased from Kabi Vitrum, Stockholm, Sweden.

Bovine trypsin = biological target: T3, Bovine trypsin (Bos taurus, UniProt P00760); assay: Serine protease inhibition, trypsin (chromogenic substrate), Kass; conditions: substrate N-Benzoyl-Phe-Val-Arg-p-nitroanilide
T3 construct: Bovine trypsin is purchased from Worthington Biochemicals, Freehold, N.J; purchased Worthington Biochemicals, Freehold, N.J
T3 sequence (P00760 24-246): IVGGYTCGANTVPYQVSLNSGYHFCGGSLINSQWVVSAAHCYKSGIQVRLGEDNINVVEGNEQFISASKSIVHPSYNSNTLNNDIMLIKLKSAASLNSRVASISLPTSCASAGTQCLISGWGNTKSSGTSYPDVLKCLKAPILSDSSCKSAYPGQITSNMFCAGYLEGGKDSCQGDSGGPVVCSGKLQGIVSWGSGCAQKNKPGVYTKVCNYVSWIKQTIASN
Protocol: as §1, §2, §3, §4

Human plasmin = biological target: T4, Human plasmin (Homo sapiens, UniProt P00747); assay: Serine protease inhibition, plasmin (chromogenic substrate), Kass; conditions: substrate H-D-Val-Leu-Lys-p-nitroanilide
T4 construct: Human plasmin is purchased from Boehringer Mannheim, Indianapolis, Ind; purchased Boehringer Mannheim, Indianapolis, Ind
T4 sequence (P00747 581-810 limits assumed): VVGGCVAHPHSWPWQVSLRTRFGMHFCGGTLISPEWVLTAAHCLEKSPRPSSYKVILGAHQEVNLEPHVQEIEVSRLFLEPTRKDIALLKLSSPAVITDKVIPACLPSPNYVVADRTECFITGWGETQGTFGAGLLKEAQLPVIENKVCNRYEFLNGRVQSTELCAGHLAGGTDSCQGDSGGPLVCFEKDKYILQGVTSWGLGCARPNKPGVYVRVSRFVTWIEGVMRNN
T4 sequence (P00747 97-580 partner limits assumed): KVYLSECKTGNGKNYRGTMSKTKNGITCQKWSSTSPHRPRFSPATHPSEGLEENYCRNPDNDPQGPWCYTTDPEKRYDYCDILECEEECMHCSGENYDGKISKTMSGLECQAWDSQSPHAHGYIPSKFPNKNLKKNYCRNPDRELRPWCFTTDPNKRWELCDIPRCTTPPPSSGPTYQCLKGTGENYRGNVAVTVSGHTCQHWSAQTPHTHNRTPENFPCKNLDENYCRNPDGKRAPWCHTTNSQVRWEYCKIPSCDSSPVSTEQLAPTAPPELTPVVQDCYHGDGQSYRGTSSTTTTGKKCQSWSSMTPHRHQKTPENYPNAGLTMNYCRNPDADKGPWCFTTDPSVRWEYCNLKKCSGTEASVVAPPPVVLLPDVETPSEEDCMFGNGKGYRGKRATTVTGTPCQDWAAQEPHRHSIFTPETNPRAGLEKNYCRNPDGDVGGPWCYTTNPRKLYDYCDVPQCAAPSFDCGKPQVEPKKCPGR
Protocol: as §1, §2, §3, §4

[1] = biological target: T5, tissue plasminogen activator (t-PA) (Homo sapiens, UniProt P00750); assay: Serine protease inhibition, t-PA (chromogenic substrate), Kass; conditions: substrate H-D-Ile-Pro-Arg-p-nitroanilide
T5 construct: purchased American Diagnostics, Greenwich, Conn
T5 sequence (P00750 36-562): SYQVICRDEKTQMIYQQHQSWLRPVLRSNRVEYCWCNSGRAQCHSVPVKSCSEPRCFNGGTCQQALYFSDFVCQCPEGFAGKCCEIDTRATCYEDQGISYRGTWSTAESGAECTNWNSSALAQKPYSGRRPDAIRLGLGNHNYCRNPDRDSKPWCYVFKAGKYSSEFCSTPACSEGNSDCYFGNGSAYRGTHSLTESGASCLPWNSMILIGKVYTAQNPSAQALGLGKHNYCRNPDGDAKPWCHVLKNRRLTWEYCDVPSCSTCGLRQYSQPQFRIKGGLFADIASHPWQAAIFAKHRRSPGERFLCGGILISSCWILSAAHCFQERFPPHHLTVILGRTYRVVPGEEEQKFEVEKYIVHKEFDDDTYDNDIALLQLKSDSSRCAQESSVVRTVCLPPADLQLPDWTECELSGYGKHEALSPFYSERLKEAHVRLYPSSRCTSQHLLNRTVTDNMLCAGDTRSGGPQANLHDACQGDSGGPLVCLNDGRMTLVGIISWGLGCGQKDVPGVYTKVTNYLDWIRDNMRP
Protocol: as §1, §2, §3, §4

Human Plasma [2] = assay: Anticoagulation in human plasma, thrombin time (TT); conditions: concentration required to double the thrombin time
Protocol: (§5) Dog plasma and rat plasma are obtained from conscious mixed-breed hounds (either sex, Hazelton-LRE, Kalamazoo, Mich., U.S.A.) or from anesthetized male Sprague-Dawley rats (Harlan Sprague-Dawley, Inc., Indianapolis, Ind., U.S.A.) by venipuncture into 3.8 percent citrate. Fibrinogen is prepared from in-date ACD human blood as the fraction I-2 according to previous procedures and specifications. Smith, Biochem. Chem. […] Human fibrinogen is also purchased as 98 percent pure/plasmin free from American Diagnostics, Greenwich, Conn. Coagulation reagents ACTIN, Thromboplastin, and Human plasma are from Baxter Healthcare Corp., Dade Division, Miami, Fla. Bovine thrombin from Parke-Davis (Ann Arbor, Mich.) is used for coagulation assays in plasma. Coagulation assay procedures are as previously described. Smith, et al., Thrombosis Research, 5, 163-174 (1988). A CoAScreener coagulation instrument (American LABor, Inc.) is used for all coagulation assay measurements. The prothrombin time (PT) is measured by adding 0.05 ml saline and 0.05 ml Thromboplastin-C reagent to 0.05 ml test plasma. The activated partial thromboplastin time (APTT) is measured by incubation of 0.05 ml test plasma with 0.05 ml Actin reagent for 120 seconds followed by 0.05 ml CaCl2 (0.02M). […] The compounds of formula I are added to human or animal plasma over a wide range of concentrations to determine prolongation effects on the APTT, PT, and TT assays. Linear extrapolations are performed to estimate the concentrations required to double the clotting time for each assay.

Human Plasma [3] = assay: Anticoagulation in human plasma, activated partial thromboplastin time (APTT); conditions: concentration required to double the APTT
Protocol: as §5

Human Plasma [4] = assay: Anticoagulation in human plasma, prothrombin time (PT); conditions: concentration required to double the PT
Protocol: as §5

SMILES | Enzyme Kass, Human Thrombin (human thrombin) [L/mol × 10^6] | Enzyme Kass, Xa (factor Xa) [L/mol × 10^6] | Enzyme Kass, Trypsin (Bovine trypsin) [L/mol × 10^6] | Enzyme Kass, Plasmin (Human plasmin) [L/mol × 10^6] | Enzyme Kass, t-Pa [1] [L/mol × 10^6] | 2 × Clotting time, TT (Human Plasma [2]) [ng/mL] | 2 × Clotting time, APTT (Human Plasma [3]) | 2 × Clotting time, PT (Human Plasma [4])
CCS(=O)(=O)N[C@@H](C(=O)N1CCC[C@H]1C(=O)N[C@H](C=O)CCCNC(=N)N)C1CCCCC1.Cl [Example 22, EtSO2 -D-Chg-Pro-Arg-H.HCl] | 260 | 24 | 260 | 13 | 0.11 | 46 | 330 ng/mL | 1,100 ng/ML
CC(=O)N[C@H](Cc1ccccc1)C(=O)N1CCC[C@H]1C(=O)N[C@H](C=O)CCCN=C(N)N.Cl [Example 23, Ac-D-Phe-Pro-Arg-H.HCl] | 3.4 | 0.066 | 14 | 0.28 | 0.11 | 140 | 2,700 ng/ML | 4,100 ng/ML
COCC(=O)N[C@H](Cc1ccccc1)C(=O)N1CCC[C@H]1C(=O)N[C@H](C=O)CCCNC(=N)N.Cl [Example 24, CH3 OCH2 CO-D-Phe-Pro-Arg-H.HCl] | 33 | 0.29 | 57 | 3.8 | 0.30 | 38 | 440 ng/mL | 1,200 ng/ML
Cl.N=C(N)NCCC[C@@H](C=O)NC(=O)[C@@H]1CCCN1C(=O)[C@@H](Cc1ccccc1)NC(=O)C(F)(F)F [Example 25, CF3 CO-D-Phe-Pro-Arg-H.HCl] | 26 | 0.033 | 15 | 0.31 | 0.17 | 59 | 1,300 ng/ML | 1,800 ng/ML
Cl.N=C(N)NCCC[C@@H](C=O)NC(=O)[C@@H]1CCCN1C(=O)[C@@H](Cc1ccccc1)NC(=O)Cc1ccccc1 [Example 26, PhCH2 CO-D-Phe-Pro-Arg-H.HCl] | 29 | 0.10 | 14 | 0.54 | 0.37 | 64 | 1,100 ng/ML | 2,000 ng/ML
Cl.N=C(N)NCCC[C@@H](C=O)NC(=O)[C@@H]1CCCN1C(=O)[C@@H](Cc1ccccc1)NC(=O)C1CCCCC1 [Example 27, cyclohexyl-CO-D-Phe-Pro-Arg-H.HCl] | 20 | 0.064 | 5.9 | 0.24 | 0.26 | 63 | 1,300 ng/ML | 1,800 ng/ML
CCCN(CCC)S(=O)(=O)c1ccc(C(=O)N[C@H](Cc2ccccc2)C(=O)N2CCC[C@H]2C(=O)N[C@H](C=O)CCCNC(=N)N)cc1.Cl [Example 29, 4-(n-Pr2 NSO2)-C6 H4 CO-D-Phe-Pro-Arg-H.HCl] | 43 | 0.32 | 15 | 0.86 | 0.62 | 150 | 3,500 ng/ML | 4,800 ng/ML
CCNC(=O)N[C@H](Cc1ccccc1)C(=O)N1CCC[C@H]1C(=O)N[C@H](C=O)CCCN=C(N)N.Cl [Example 32, EtNHCO-D-Phe-Pro-Arg-H.HCl] | 25 | 0.21 | 60 | 2.0 | 0.54 | 63 | 1,100 ng/ML | 1,700 ng/ML

From patent publication US5602101A, “Antithrombotic agents” (priority 1994, dated 1997)
